Experimental data from US12662451B2, “Chemical compounds and uses thereof” (GLAXOSMITHKLINE INTELLECTUAL PROPERTY (NO.4) LIMITED, priority 2023, dated 2026).
Structures can show the parent of a compound that is named as a salt.

The compounds below were run against T1, recombinant full-length WRN protein (1-1432) (Homo sapiens, UniProt Q14191) (assay: WRN unwinding activity, fluorogenic 384-well assay (Example A)). Conditions: 4 hr UNW pIC50, WRN unwinding activity, Table 2.
T1 construct: recombinant full-length WRN protein (1-1432)
Assay type: biochemical
Outline: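 200 pM enzyme (2× stock) preincubated with compound 4 h at ambient temperature, then 200 μM ATP and 12 nM quenched TAMRA-labelled dsDNA (2× stocks) added for 60 min; EDTA-quenched. Buffer 25 mM Tris pH 8.0, 5 mM NaCl, 2 mM MgCl2. Fluorescence at 525/598 nm; pIC50 from four-parameter fit.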

T1 sequence (Q14191 whole entry): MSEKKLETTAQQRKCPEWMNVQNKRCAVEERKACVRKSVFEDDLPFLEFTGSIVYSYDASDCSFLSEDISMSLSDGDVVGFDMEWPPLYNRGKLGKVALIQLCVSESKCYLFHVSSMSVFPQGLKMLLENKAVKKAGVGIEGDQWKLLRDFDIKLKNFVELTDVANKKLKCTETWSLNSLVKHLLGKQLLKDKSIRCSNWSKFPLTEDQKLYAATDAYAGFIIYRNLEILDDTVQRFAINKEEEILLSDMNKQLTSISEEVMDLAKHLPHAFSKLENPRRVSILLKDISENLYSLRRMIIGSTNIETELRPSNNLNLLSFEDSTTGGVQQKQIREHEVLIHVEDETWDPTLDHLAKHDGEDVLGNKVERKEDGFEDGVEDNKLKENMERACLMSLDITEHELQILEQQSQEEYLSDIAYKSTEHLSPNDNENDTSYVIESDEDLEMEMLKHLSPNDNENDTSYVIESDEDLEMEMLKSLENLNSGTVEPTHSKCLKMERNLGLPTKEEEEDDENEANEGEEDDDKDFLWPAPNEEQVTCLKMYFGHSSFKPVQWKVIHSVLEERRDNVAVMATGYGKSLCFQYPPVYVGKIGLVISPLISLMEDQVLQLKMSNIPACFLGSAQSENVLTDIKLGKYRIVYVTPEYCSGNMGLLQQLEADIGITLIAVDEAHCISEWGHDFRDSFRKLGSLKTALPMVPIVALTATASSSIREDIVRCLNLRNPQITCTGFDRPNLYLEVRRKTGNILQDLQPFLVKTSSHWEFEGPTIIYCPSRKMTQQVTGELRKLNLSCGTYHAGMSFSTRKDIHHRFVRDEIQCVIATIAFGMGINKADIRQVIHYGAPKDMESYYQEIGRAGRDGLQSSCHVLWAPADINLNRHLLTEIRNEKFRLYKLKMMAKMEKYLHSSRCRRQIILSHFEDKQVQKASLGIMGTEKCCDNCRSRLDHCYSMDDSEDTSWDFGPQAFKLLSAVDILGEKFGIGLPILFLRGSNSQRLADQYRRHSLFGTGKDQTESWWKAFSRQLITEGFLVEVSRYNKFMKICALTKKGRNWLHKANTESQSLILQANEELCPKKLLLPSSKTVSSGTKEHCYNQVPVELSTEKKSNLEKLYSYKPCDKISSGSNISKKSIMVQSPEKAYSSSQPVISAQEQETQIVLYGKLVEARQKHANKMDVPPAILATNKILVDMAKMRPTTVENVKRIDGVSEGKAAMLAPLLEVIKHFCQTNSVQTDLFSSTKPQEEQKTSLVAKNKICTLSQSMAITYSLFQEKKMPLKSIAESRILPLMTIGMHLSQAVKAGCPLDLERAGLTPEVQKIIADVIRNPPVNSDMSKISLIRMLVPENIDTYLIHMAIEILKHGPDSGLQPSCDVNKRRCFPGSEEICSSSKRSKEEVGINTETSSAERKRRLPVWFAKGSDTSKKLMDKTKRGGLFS

SMILES | IC50 [nM]
CN(c1ccc([C@H]2CCC[C@@H](COc3ccc(C(F)(F)F)cc3)[C@@H]2C(=O)O)cc1)S(=O)(=O)c1cccc([C@H]2CCCNC2)c1 (relative stereo) [Example 213, (1R,2S,6R)-2-(4-((N-methyl-3-((R*)-piperidin-3-yl)phenyl)sulfonamido)phenyl)-6-((4-(trifluoromethyl)phenoxy)methyl)cyclohexane-1-carboxylic acid, formic acid salt] | 39.8

Same assay, conditions: WRN unwinding activity, 4 hr; Table 2; read-out: 4 hr UNW pIC50 (converted)

IC50 [nM] | SMILES
20000 | Cc1nc2cc(S(=O)(=O)N(C)c3ccc([C@H]4CCC[C@@H](C(=O)N[C@]56CC[C@H](CC5)C6)[C@@H]4C(=O)O)cc3)ccc2n1C [Example 193, (1R,2R,6S)-2-(((1r,4R)-bicyclo[2.2.1]heptan-1-yl)carbamoyl)-6-(4-((N,1,2-trimethyl-1H-benzo[d]imidazole)-5-sulfonamido)phenyl)cyclohexane-1-carboxylic acid]
100 | CO[C@@H]1C[C@H](c2ccc(N(C)S(=O)(=O)c3ccc4c(c3)nc(C)n4C)cc2)[C@@H](C(=O)O)[C@H](C(=O)Nc2ccc(C(F)(F)F)cc2F)C1 (single isomer, unassigned) [Example 146]
126 | O=C(O)[C@@H]1[C@@H](c2ccc(C(F)(F)F)cc2CO)CCC[C@H]1C(=O)Nc1ccc(C(F)(F)F)cc1F (racemic) [Example 246, rac-(1R,2R,6S)-2-((2-fluoro-4-(trifluoromethyl)phenyl)carbamoyl)-6-(2-(hydroxymethyl)-4-(trifluoromethyl)phenyl)cyclohexane-1-carboxylic acid]

Second part, the compound before the results:

SMILES | IC50 [nM]
O=C(O)[C@@H]1[C@@H](c2ccc(C3COC3)cc2)CCC[C@H]1C(=O)Nc1ccc(C(F)(F)F)cc1F [Example 63, (1R,2R,6S)-2-((2-fluoro-4-(trifluoromethyl)phenyl)carbamoyl)-6-(4-(oxetan-3-yl)phenyl)cyclohexane-1-carboxylic acid] | 1580
O=C(O)[C@@H]1[C@@H](c2ccc([C@H]3CC34CCOCC4)cc2)CCC[C@H]1C(=O)Nc1ccc(C(F)(F)F)cc1F (racemic) [Example 65, 1:1 Mixture of (1R,2S,6R)-2-(4-((S)-6-oxaspiro[2.5]octan-1-yl)phenyl)-6-((2-fluoro-4-(trifluoromethyl)phenyl)carbamoyl)cyclohexane-1-carboxylic acid AND (1R,2S,6R)-2-(4-((R)-6-oxaspiro[2.5]octan-1-yl)phenyl)-6-((2-fluoro-4-(trifluoromethyl)phenyl)carbamoyl)cyclohexane-1-carboxylic acid] | 50.1
Cc1nc2cc(S(=O)(=O)N(C)c3ccc([C@H]4CCC[C@H](C(=O)Nc5ccc(C(C)C)cc5)[C@@H]4C(=O)O)cc3)ccc2n1C (racemic) [Example 72, rac-(1R,2S,6S)-2-((4-isopropylphenyl)carbamoyl)-6-(4-((N,1,2-trimethyl-1H-benzo[d]imidazole)-5-sulfonamido)phenyl)cyclohexane-1-carboxylic acid] | 3.16
O=C(O)[C@@H]1[C@@H](c2ccc(-c3cnsc3CO)cc2)CCC[C@H]1C(=O)Nc1ccc(C(F)(F)F)cc1F [Example 51, (1R,2R,6S)-2-((2-fluoro-4-(trifluoromethyl)phenyl)carbamoyl)-6-(4-(5-(hydroxymethyl)isothiazol-4-yl)phenyl) cyclohexane-1-carboxylic acid] | 10
C=CC1COC[C@@H]1c1ccc([C@H]2CCC[C@@H](C(=O)Nc3ccc(C(F)(F)F)cc3F)[C@@H]2C(=O)O)cc1 (mixture of isomers) [Example 66, 1:1 Mixture of (1R,2R,6S)-2-((2-fluoro-4-(trifluoromethyl)phenyl)carbamoyl)-6-(4-((3S)-4-vinyltetrahydrofuran-3-yl)phenyl)cyclohexane-1-carboxylic acid AND (1R,2R,6S)-2-((2-fluoro-4-(trifluoromethyl)phenyl)carbamoyl)-6-(4-((3R)-4-vinyltetrahydrofuran-3-yl)phenyl)cyclohexane-1-carboxylic acid] | 2510
